In US6326139A (priority 1997, dated 2001):

Columns and labels:
[1] = in vivo; cited from earlier work
BuChE L^286 K = BuChE L^286 K (Homo sapiens, UniProt P06276, L314K); assay: Reactivation by PAM of DFP-inhibited enzyme; format: biochemical
Experimental: (§1) and 1 μM DFP. The pseudo-first order rate constant for reactivation, […]

[2] = system: Chimera of human AChE and BuChE; assay: Reactivation by PAM of DFP-inhibited enzyme; format: biochemical
Experimental: as §1

DIP-BuChE = molecular target: T1, DIP-BuChE (Homo sapiens, UniProt P06276); assay: Reactivation by PAM of DFP-inhibited enzyme; format: biochemical
T1 construct: made in house; host or cells: Xenopus oocytes (microinjected in vitro transcribed mRNA)
T1 sequence (P06276 29-602): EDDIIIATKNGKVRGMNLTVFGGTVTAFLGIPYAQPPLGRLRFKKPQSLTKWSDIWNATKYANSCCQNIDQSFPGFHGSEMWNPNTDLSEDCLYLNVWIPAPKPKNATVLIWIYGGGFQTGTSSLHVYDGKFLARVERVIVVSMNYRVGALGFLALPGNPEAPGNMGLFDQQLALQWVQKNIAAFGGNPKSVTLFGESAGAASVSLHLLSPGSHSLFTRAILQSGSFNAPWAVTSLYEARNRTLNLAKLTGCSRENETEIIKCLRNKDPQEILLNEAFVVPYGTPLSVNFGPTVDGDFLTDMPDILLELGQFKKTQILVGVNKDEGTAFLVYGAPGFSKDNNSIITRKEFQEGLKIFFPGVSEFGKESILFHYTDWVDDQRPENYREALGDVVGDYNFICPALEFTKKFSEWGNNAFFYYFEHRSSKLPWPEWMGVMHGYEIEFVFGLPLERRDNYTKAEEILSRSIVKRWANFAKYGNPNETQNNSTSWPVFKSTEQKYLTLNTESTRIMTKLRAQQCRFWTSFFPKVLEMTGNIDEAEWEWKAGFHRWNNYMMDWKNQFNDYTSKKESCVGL
Experimental: as §1

AChE (E5) = AChE (E5) (Homo sapiens, UniProt P22303)
Sequence of AChE (E5) (P22303-4 with tags, fused parts or gaps limits assumed): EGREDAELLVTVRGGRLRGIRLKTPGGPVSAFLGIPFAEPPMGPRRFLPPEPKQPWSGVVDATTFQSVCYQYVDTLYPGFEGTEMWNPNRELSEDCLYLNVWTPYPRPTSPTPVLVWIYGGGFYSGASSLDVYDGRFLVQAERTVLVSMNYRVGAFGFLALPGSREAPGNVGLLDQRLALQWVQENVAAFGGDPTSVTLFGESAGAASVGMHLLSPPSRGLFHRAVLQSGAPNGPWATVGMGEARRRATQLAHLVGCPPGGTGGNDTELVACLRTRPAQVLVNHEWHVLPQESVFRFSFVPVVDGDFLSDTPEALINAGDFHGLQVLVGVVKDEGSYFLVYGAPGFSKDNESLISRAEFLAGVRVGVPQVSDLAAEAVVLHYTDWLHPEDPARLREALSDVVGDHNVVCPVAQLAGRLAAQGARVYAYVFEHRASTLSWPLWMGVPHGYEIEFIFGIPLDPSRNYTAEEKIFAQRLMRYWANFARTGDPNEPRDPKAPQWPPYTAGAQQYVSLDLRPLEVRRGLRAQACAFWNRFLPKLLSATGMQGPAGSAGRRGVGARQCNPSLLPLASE
Experimental: (§2) Single-step enrichment for AChE or BuChE on immobilized antibody: Monoclonal mouse anti-human serum BuChE (53-4) or anti-human ACHE (101-1) antibodies (Liao et al., 1993), were adsorbed to microliter plates (Nunc, Roskilde, Denmark) at […] in 0.1 M carbonate buffer, pH 9.6, for at least four hours at room temperature. Plates were then washed three times in PBS-T buffer (144 mM NaCl, 20 mM Na phosphate, pH 7.4, 0.05% Tween-20). Free binding sites on the well surface of the microliter plate were blocked with PBS-T for one hour at 37° C. […] Microinjected oocyte homogenates containing the enzyme were then added at a dilution of 1:20 in PBS-T or at a concentration of 100 mIU/ml in PBS-T for at least 3 hours at room temperature with agitation. Plates were washed three times with PBS-T before use. Inactivation was performed at pH 7.4 in order to facilitate comparison with similar studies in the literature.
(§3) and 1 μM DFP. The pseudo-first order rate constant for reactivation,
(§4) ^a True first order rate constants for reactivation (kr) and […]

AChE (E6) = AChE (E6) (Homo sapiens, UniProt P22303)
Sequence of AChE (E6) (P22303 32-614): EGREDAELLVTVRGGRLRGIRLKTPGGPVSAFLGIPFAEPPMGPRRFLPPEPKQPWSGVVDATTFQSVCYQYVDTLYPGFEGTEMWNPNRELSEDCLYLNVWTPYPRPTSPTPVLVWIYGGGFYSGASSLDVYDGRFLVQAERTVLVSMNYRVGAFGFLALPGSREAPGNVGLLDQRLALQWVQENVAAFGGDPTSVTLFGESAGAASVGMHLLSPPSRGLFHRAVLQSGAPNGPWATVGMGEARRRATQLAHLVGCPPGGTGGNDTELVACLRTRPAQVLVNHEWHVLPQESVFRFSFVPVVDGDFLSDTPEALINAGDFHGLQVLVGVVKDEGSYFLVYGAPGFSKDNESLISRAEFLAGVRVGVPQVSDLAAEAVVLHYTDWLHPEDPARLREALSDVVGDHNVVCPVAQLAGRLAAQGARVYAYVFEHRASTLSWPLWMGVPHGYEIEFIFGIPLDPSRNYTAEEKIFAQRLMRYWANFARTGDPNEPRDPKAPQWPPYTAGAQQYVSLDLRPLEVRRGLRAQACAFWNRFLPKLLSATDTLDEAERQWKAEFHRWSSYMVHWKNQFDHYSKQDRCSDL
Experimental: as §2, §3, §4

BuChE D^70 G + S^425 P = assay: Reactivation by PAM of DFP-inhibited enzyme; format: biochemical, human; conditions: 1 mM PAM; pseudo-first order
Experimental: as §1

[3] = system: BuChE D^70 G + Y^114 H + S^425 P; assay: Reactivation by PAM of DFP-inhibited enzyme; format: biochemical, human
Experimental: as §1

BuChE D^70 G + Y^114 H = assay: Reactivation by PAM of DFP-inhibited enzyme; format: biochemical, human; conditions: 1 mM PAM; pseudo-first order
Experimental: as §1

BuChE D^70 G = assay: Reactivation by PAM of DFP-inhibited enzyme; format: biochemical, human
Experimental: as §1

BuChE F^329 C = assay: Reactivation by PAM of DFP-inhibited enzyme; format: biochemical, human; conditions: 1 mM PAM; pseudo-first order
Experimental: as §1

BuChE F^329 D = assay: Reactivation by PAM of DFP-inhibited enzyme; format: biochemical, human; conditions: 1 mM PAM; pseudo-first order
Experimental: as §1

BuChE F^329 Q = assay: Reactivation by PAM of DFP-inhibited enzyme; format: biochemical, human; conditions: 1 mM PAM; pseudo-first order
Experimental: as §1

BuChE F^329 R = assay: Reactivation by PAM of DFP-inhibited enzyme; format: biochemical, human; conditions: 1 mM PAM; pseudo-first order
Experimental: as §1

BuChE L^286 D = assay: Reactivation by PAM of DFP-inhibited enzyme; format: biochemical, human; conditions: 1 mM PAM; pseudo-first order
Experimental: as §1

BuChE L^286 Q = assay: Reactivation by PAM of DFP-inhibited enzyme; format: biochemical, human; conditions: 1 mM PAM; pseudo-first order
Experimental: as §1

BuChE L^286 R = assay: Reactivation by PAM of DFP-inhibited enzyme; format: biochemical, human; conditions: 1 mM PAM; pseudo-first order
Experimental: as §1

BuChE S^425 P = assay: Reactivation by PAM of DFP-inhibited enzyme; format: biochemical, human; conditions: 1 mM PAM; pseudo-first order
Experimental: as §1

[4] = system: D^70 G BuChE in tandem with one or two additional natural mutations; assay: Reactivation by 2-PAM of DFP-inactivated enzyme; format: biochemical, human
Experimental: Single-step enrichment for AChE or BuChE on immobilized antibody: Monoclonal mouse anti-human serum BuChE (53-4) or anti-human ACHE (101-1) antibodies (Liao et al., 1993), were adsorbed to microliter plates (Nunc, Roskilde, Denmark) at 0.5 pg/ml in 0.1 M carbonate buffer, pH 9.6, for at least four hours at room temperature. Plates were then washed three times in PBS-T buffer (144 mM NaCl, 20 mM Na phosphate, pH 7.4, 0.05% Tween-20). Free binding sites on the well surface of the microliter plate were blocked with PBS-T for one hour at 37° C. […] Microinjected oocyte homogenates containing the enzyme were then added at a dilution of 1:20 in PBS-T or at a concentration of 100 mIU/ml in PBS-T for at least 3 hours at room temperature with agitation. Plates were washed three times with PBS-T before use. Inactivation was performed at pH 7.4 in order to facilitate comparison with similar studies in the literature.

[5] = true first order, 0.1 to 0.6 mM PAM

Sequence of BuChE L^286 K (P06276 29-602 L314K limits assumed): as the sequence (P06276 29-602) above, with L286K counted along it

CCN(CC)C(=O)c1cccc(C)c1 [DEET]
toxicity of anti-ChEs [1]: amplify the toxicity of anti-ChEs

C[n+]1ccccc1C=NO [PAM, Pyridine-2-aldoxime methiodide]
k'r × 10^3 (BuChE L^286 K; 1 mM PAM, pseudo-first order): 4 ± 1 min^-1
reduction in the pseudo-first order rate constant for reactivation (BuChE L^286 K; L^286 K): 40 fold
kr × 10^3 (BuChE L^286 K; [5]): 35 ± 27 min^-1
k'r × 10^3 ([2]; 1 mM PAM, pseudo-first order): 40 ± 18 min^-1
reactivation rate constant lower than native BuChE ([2]; chimera): 5 fold
kr × 10^3 [2, 5]: 48 ± 20 min^-1
k'r × 10^3 (DIP-BuChE; 1 mM PAM, pseudo-first order): 150 ± 30 min^-1
pseudo-first order reactivation rate constant higher than for either form of AChE (DIP-BuChE; DFP-inhibited BuChE): 25 fold
kr × 10^3 (DIP-BuChE; [5]): 220 ± 60 min^-1
k'r × 10^3 (AChE (E5); 1 mM PAM, pseudo-first order): 8 ± 3 min^-1
kr × 10^3 (AChE (E5); [5]): 10 ± 5 min^-1
k'r × 10^3 (AChE (E6); 1 mM PAM, pseudo-first order): 6 ± 2 min^-1
kr × 10^3 (AChE (E6); [5]): 7 ± 3 min^-1
k'r × 10^3 (BuChE D^70 G + S^425 P): 11 min^-1
k'r × 10^3 ([3]; 1 mM PAM, pseudo-first order): 4 ± 1 min^-1
decrease in the rate of reactivation ([3]; all three mutations): 40 fold
k'r × 10^3 (BuChE D^70 G + Y^114 H): 12 ± 5 min^-1
k'r × 10^3 (BuChE D^70 G; 1 mM PAM, pseudo-first order): 32 ± 4 min^-1
reactivation rate lower than wild-type (BuChE D^70 G; D^70 G, DFP-inactivated): 5 fold
k'r × 10^3 (BuChE F^329 C): 14 ± 2 min^-1
k'r × 10^3 (BuChE F^329 D): 8 ± 1 min^-1
k'r × 10^3 (BuChE F^329 Q): 44 ± 15 min^-1
k'r × 10^3 (BuChE F^329 R): 43 min^-1
k'r × 10^3 (BuChE L^286 D): 120 ± 30 min^-1
k'r × 10^3 (BuChE L^286 Q): 120 ± 20 min^-1
k'r × 10^3 (BuChE L^286 R): 6 ± 3 min^-1
k'r × 10^3 (BuChE S^425 P): 134 ± 8 min^-1
rate of reactivation lower than wild type [4]: ≤ 40 fold
